Experiments:
[1] = target: T1, Alpha-1D adrenergic receptor (Homo sapiens, UniProt P25100); format: cell membranes, HEK293, Membrane; conditions: hek293; further: in other assays of this panel Not Active means under 50% inhibition at 10 µM
T1 sequence (P25100 whole entry): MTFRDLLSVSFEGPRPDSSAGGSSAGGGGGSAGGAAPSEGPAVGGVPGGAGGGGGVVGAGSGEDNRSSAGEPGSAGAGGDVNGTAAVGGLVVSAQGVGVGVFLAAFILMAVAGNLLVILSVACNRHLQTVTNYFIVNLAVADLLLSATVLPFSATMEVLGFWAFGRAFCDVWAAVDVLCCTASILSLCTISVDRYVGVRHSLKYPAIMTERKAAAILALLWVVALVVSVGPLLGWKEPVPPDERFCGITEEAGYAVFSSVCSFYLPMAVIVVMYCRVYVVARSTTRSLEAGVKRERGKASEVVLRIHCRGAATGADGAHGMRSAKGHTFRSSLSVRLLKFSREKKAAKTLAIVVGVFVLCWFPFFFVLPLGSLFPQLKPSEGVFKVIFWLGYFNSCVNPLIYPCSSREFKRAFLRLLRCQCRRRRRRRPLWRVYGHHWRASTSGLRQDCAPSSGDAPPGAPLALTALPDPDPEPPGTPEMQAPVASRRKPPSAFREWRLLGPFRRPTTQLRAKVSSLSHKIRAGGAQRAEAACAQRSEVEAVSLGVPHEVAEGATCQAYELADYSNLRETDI

Cytochrome P450 2C19 = Cytochrome P450 2C19 (Homo sapiens, UniProt P33261); conditions: bti-tn-5b1-4; further: in other assays of this panel Not Active means under 50% inhibition at 10 µM
[2] = target: Matrix metalloproteinase-9 (Homo sapiens, UniProt P14780); assay: biochemical; format: cell-based;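 further: inhibition of isolated MMP-9 enzyme activity toward a synthetic peptide substrate, from the DrugMatrix protease screening panel; in other assays of this panel Not Active means under 50% inhibition at 10 µM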
Glycine receptor = Glycine receptor (Rattus norvegicus, UniProt P22771+P24524+P07727+P20781); format: cell membranes, Wistar, Spinal cord, Membrane; further: in other assays of this panel Not Active means under 50% inhibition at 10 µM
[3] = target: T2, Alpha-2C adrenergic receptor (Homo sapiens, UniProt P18825); assay: DRUGMATRIX: Adrenergic Alpha-2C radioligand binding (ligand: [3H] MK-912); format: cell membranes, Sf9, Membrane; on IC50: call rule not given here
T2 sequence (P18825 whole entry): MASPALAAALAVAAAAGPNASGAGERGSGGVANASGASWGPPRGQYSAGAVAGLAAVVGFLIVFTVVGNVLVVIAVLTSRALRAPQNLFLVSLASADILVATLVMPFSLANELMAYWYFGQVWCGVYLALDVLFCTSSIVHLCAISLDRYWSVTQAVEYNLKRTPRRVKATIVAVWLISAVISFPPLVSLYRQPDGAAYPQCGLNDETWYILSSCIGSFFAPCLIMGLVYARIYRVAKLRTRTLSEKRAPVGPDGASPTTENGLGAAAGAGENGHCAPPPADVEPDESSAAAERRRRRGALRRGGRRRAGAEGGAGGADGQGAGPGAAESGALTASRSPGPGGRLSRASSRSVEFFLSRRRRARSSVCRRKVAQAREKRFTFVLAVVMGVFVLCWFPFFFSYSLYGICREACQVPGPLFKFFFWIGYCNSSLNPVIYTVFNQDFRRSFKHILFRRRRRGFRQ

[4] = target: C-C chemokine receptor type 2 (Homo sapiens, UniProt P41597); format: cell membranes, CHO-K1, Membrane; conditions: cho-k1; further: in other assays of this panel Not Active means under 50% inhibition at 10 µM
Sequence of C-C chemokine receptor type 2 (P41597 whole entry): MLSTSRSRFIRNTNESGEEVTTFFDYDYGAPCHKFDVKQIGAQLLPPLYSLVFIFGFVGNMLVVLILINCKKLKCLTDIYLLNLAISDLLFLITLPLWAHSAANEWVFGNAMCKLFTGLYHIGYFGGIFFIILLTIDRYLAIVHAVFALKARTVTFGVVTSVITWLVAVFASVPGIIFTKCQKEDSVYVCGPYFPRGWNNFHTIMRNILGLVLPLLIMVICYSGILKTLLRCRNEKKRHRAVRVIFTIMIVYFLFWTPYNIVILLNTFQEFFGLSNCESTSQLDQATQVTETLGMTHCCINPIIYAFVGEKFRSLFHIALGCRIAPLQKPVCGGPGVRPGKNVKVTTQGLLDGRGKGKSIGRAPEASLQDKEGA

Sequence of Cytochrome P450 2C19 (P33261 whole entry): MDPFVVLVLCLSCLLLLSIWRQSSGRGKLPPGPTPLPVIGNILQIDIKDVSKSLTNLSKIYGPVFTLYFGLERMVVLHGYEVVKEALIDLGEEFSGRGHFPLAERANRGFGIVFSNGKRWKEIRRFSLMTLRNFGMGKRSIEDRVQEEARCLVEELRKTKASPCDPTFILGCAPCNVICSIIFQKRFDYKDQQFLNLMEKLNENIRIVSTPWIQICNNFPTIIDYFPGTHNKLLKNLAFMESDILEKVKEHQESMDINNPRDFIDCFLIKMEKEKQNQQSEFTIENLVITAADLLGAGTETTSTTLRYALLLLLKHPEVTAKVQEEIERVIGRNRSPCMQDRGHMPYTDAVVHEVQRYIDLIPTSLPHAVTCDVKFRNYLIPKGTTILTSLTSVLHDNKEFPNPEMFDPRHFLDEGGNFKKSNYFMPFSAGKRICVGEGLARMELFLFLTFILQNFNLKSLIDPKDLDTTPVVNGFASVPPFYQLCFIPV
Sequence of Matrix metalloproteinase-9 (P14780 whole entry): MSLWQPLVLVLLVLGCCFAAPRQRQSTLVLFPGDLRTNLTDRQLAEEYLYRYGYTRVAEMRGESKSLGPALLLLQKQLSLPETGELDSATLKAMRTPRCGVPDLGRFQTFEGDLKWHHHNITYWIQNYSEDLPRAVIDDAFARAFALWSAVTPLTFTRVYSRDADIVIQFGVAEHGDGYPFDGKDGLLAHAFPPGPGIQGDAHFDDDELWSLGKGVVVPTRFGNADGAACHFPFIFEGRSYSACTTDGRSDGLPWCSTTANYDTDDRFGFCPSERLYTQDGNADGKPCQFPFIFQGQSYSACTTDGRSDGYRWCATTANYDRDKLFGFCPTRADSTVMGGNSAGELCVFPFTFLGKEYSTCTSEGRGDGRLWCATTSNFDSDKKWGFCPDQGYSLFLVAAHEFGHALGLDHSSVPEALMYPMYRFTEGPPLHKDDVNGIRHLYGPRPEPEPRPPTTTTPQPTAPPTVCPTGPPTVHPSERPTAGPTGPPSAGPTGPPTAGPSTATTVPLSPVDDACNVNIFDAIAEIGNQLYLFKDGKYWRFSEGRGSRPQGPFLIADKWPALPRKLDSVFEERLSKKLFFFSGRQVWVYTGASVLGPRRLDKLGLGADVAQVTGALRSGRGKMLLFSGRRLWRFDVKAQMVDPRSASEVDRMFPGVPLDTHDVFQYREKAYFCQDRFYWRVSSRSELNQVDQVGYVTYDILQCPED

| SMILES | IC50 [1] | IC50 (Cytochrome P450 2C19) | Ki (Cytochrome P450 2C19) | IC50 [2] | IC50 (Glycine receptor) | IC50 ([3]; sf9) | IC50 [4] | IC50 ([3]; read-out: IC50) | Ki ([3]; read-out: Ki) |
| --- | --- | --- | --- | --- | --- | --- | --- | --- | --- |
| CC(=O)Nc1c(I)c(NC(C)=O)c(I)c(C(=O)O)c1I [DIATRIZOIC ACID] | Not Active | Not Active | Not Active | Not Active | Not Active | Not Active | Not Active |  |  |
| Cc1cc(=O)n(-c2ccccc2)n1C [ANTIPYRINE] | Not Active | Not Active | Not Active | Not Active | Not Active | Not Active | Not Active |  |  |
| CC1(C)O[C@@H]2C[C@H]3[C@@H]4C[C@H](F)C5=CC(=O)CC[C@]5(C)[C@H]4[C@@H](O)C[C@]3(C)[C@]2(C(=O)CO)O1 [FLURANDRENOLIDE] | Not Active | Not Active | Not Active | Not Active | Not Active | Not Active | Not Active |  |  |
| CC(=O)OCC(=O)[C@@]1(O)CC[C@H]2[C@@H]3CCC4=CC(=O)CC[C@]4(C)[C@H]3C(=O)C[C@@]21C [CORTISONE ACETATE] | Not Active | Not Active | Not Active | Not Active | Not Active | Not Active | Not Active |  |  |
| CCN1CC(CCN2CCOCC2)C(c2ccccc2)(c2ccccc2)C1=O (centres undefined) [DOXAPRAM] | Not Active | Not Active | Not Active | Not Active | Not Active | Not Active | Not Active |  |  |
| NC(=O)c1cnccn1 [PYRAZINAMIDE] | Not Active | Not Active | Not Active | Not Active | Not Active | Not Active | Not Active |  |  |
| O=C1CC[C@H](N2C(=O)c3ccccc3C2=O)C(=O)N1 | Not Active | Not Active | Not Active | Not Active | Not Active | Not Active | Not Active |  |  |
| ClC(Cl)Cl [CHLOROFORM] | Not Active | Not Active | Not Active | Not Active | Not Active | Not Active | Not Active |  |  |
| CCc1c2c(nc3ccc(OC(=O)N4CCC(N5CCCCC5)CC4)cc13)-c1cc3c(c(=O)n1C2)COC(=O)[C@]3(O)CC [IRINOTECAN] | Not Active | Not Active | Not Active | Not Active | Not Active |  | Not Active | 3.17 µM | 0.461 µM |
| CCCN(CCC)C(=O)C(CCC(=O)O)NC(=O)c1ccccc1 (centres undefined) [PROGLUMIDE] | Not Active | Not Active | Not Active | Not Active | Not Active | Not Active | Not Active |  |  |
| CCCC(CCC)C(=O)O [VALPROIC ACID] | Not Active | Not Active | Not Active | Not Active | Not Active | Not Active | Not Active |  |  |
| CCCC(=O)Nc1ccc(OCC(O)CNC(C)C)c(C(C)=O)c1 (centres undefined) [ACEBUTOLOL] | Not Active | Not Active | Not Active | Not Active | Not Active | Not Active | Not Active |  |  |
| OC(CCN1CCCCC1)(c1ccccc1)C1CCCCC1 (centres undefined) [TRIHEXYPHENIDYL] | Not Active | Not Active | Not Active | Not Active | Not Active | Not Active | Not Active |  |  |
| Cc1ccc(S(=O)(=O)NC(=O)NN2CC3CCCC3C2)cc1 (centres undefined) [GLICLAZIDE] | Not Active | Not Active | Not Active | Not Active | Not Active | Not Active | Not Active |  |  |

— ChEMBL document CHEMBL1909046, “DrugMatrix in vitro pharmacology data”
